Data from patent publication US20260103474A1, “NOVEL COMPOUNDS FOR THE DIAGNOSIS OF TDP-43 PROTEINOPATHIES” (AC IMMUNE SA, priority 2022, published 2026).

Key:
[1] = system: AD brain homogenates (containing Abeta and Tau); assay: Radiobinding assay (direct binding, Kd) on AD insoluble fraction of brain homogenates; parameters: species or system human; conditions: saturation binding of tritiated compound
Procedure: Approximately 4 g of frozen tissue block from frontal cortex brain region was used from an AD donor with confirmed burden of Tau and Abeta aggregates. The tissue was homogenized in three volumes (1:3 w/v) of high salt buffer (50 mM Tris-HCl pH 7.5, 750 mM NaCl, 5 mM EDTA) supplemented with protease inhibitors (Complete; Roche 11697498001) at 4° C. with a glass Dounce homogenizer. The homogenate was transferred into polycarbonate centrifuge bottles (16×76 mm; Beckman 355603) and centrifuged at 100,000×g (38,000 RPM) in an ultracentrifuge (Beckman, XL100K) for 60 minutes at 4° C. using a pre-cooled 70.1 rotor (Beckman, 342184). Pellets were resuspended in high salt buffer supplemented with 1% Triton X-100 and homogenized at 4° C. with a syringe. The homogenates were centrifuged again at 100,000×g (38,000 RPM, 70.1 rotor) for 60 minutes at 4° C. Pellets were resuspended in high salt buffer supplemented with 1% Triton X-100 and 1 M sucrose and homogenized at 4° C. with a syringe. […]
The AD insoluble fraction was incubated with [^3H]Compound 1, [^3H]Compound 17 or [^3H]Abeta reference compound ([^3H]Abeta ref) at different concentrations. […] The filters were analyzed on a Microbeta scintillation counter (PerkinElmer). Specific binding was calculated by subtracting the non-specific signal from the total signal. […]

[2] = biological target: T1, Human brain derived TDP-43 aggregates (Homo sapiens, UniProt Q13148); assay: Micro-radiobinding competition assay for binding affinity to TDP-43; conditions: for Ki: 0.24 nM to 2 μM vs tritiated reference ligand at 40 nM; for Human brain derived TDP-43 aggregates Mean % competition at 250 nM: non-radiolabeled compound at 250 nM vs tritiated reference ligand at 40 nM; for Human brain derived TDP-43 aggregates Mean % competition at 250 nM / Human brain derived TDP-43 aggregates Mean % competition at 2 μM: FTD sarkosyl-insoluble brain extracts; for Human brain derived TDP-43 aggregates Mean % competition at 2 μM: non-radiolabeled compound at 2 μM vs tritiated reference ligand at 40 nM
T1 construct: Human FTD sarkosyl-insoluble brain extracts were spotted onto microarray slides
Procedure: Human brain extracts were prepared as described in Laferriere et al., 2019, Nature Neurosc. A sample of brain tissue (frontal or temporal cortex) was homogenized at 1:4 (w/v) ratio in the homogenization-solubilization (HS) buffer at 4° C. using tissue homogenizer (Precellys) with CKmix homogenization tubes. The following sequence was used for homogenization: 3 cycles of 30 seconds at 5000 rpm (with 15 seconds pause between each cycle). Homogenized samples were aliquoted and stored at −80° C. in 1.5 mL low protein binding tubes.
Brain homogenates were thawed on ice and resuspended in HS buffer to obtain a final concentration of 2% sarkosyl, 1 unit/μL Benzonase and 1 mM MgCl2. The samples were then incubated at 37° C. under constant shaking at 600 rpm on a thermomixer for 45 minutes (min). The supernatants were collected in a new tube (sarkosyl-soluble fraction, S1). The pellet was resuspended in 1000 μL of myelin floatation buffer and centrifuged at 20,000 g for 60 min at 4° C. The supernatant was carefully removed to remove all the floating lipids. This step was repeated if all the lipids could not be removed in a single step. The pellet was subsequently washed with Phosphate-Buffered Saline (PBS) and centrifuged for 30 min at 20,000 g at 4° C. The final pellet was resuspended in 200 μL PBS and stored at −80° C. (sarkosyl-insoluble fraction). The samples were analyzed by immunoblotting in denaturing conditions.
Human FTD sarkosyl-insoluble brain extracts were spotted onto microarray slides. The slides were incubated with a tritiated reference ligand at 40 nM, and the example compounds (non-radiolabeled) at 2 μM and 250 nM. […] After incubation, slides were washed and scanned by a real-time autoradiography system (BeaQuant, ai4R). Quantification of the signal was performed by using the Beamage image analysis software (ai4R). Non-specific signal was determined with an excess of non-radiolabeled reference compound (2 μM) and specific binding was calculated by subtracting the non-specific signal from the total signal. Competition was calculated as percent, where 0% was defined as the specific binding in the presence of vehicle and 100% as the values obtained in the presence of excess of the non-radiolabeled reference compound. Ki values were calculated in GraphPad Prism8 by applying a nonlinear regression curve fit using a one site, specific binding model. Measurements were performed with at least two technical replicates in the two-concentration competition experiment and with one technical replicate in the experiments including a range of concentrations. For compounds tested in more than one experiment, the mean of the replicates or Ki values in independent experiments is reported.

[3] = system: Abeta and Tau aggregates in AD tissue; assay: Classical autoradiography on Abeta- and Tau-rich AD brain tissue sections; assay type: binding, human; conditions: tritiated compound 10 nM; alone or in self-competition
Procedure: All tissues were collected from donors for or from whom a written informed consent for a brain autopsy and the use of the material and clinical information for research purposes had been obtained by the respective brain banks. All samples were anonymized and coded. Frozen brain tissue blocks with confirmed Abeta and Tau pathology upon autopsy were processed using a cryotome to generate sections of 10 μm in thickness and mounted on glass slides. Sections were kept at −80° C. until use.
Brain sections were fixed for 15 minutes at 4° C. with 4% formaldehyde on ice and washed three times for eight minutes with 1×PBS at RT. Sections were blocked in assay buffer for 30 minutes (50 mM Tris-HCl, 0.9% NaCl+0.1% BSA). Cold test compound (Compound 1) was diluted in assay buffer to 4 μM and applied on half of the sections for 40 minutes at RT to determine non-specific binding. The remaining half of the sections were only incubated with assay buffer (total binding). […]
Sections were subsequently dried under a stream of air and mounted with a copper-based adhesive strip. Bound radioactivity was quantified by exposing the slides in a real-time autoradiography system (Beaquant™ AI4R) for 2 hours with measurement settings configured for tritium. Beavacq software (AI4R) was used to acquire the image which was subsequently quantified using Beamage image analysis software (AI4R).

T1 sequence (Q13148 261-414 limits assumed): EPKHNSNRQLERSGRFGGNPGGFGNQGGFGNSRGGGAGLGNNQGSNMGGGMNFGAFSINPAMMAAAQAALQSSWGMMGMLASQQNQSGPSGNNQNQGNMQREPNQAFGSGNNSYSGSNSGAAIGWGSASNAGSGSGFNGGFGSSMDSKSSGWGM

| Direct binding in AD brain homogenates (containing Abeta and Tau) [1] | Structure (SMILES) | Ki [2] [nM] | Human brain derived TDP-43 aggregates Mean % competition at 250 nM [2] [%] | Human brain derived TDP-43 aggregates Mean % competition at 2 μM [2] [%] | Classical autoradiography signal on AD tissue with abundant Abeta and Tau pathology [3] |
| --- | --- | --- | --- | --- | --- |
| No significant binding | [3H]C([3H])(O)C1CCN(c2ccc(-c3nc4c(s3)C(=O)N(c3cccnc3)CC4)c(F)n2)CC1 [[^3H]-Compound 17, 2-(2-fluoro-6-(4-(hydroxymethyl-t2)piperidin-1-yl)pyridin-3-yl)-5-(pyridin-3-yl)-6,7-dihydrothiazolo[5,4-c]pyridin-4(5H)-one] | – | – | – | – |
| No significant binding | [3H]c1cncc(N2CCc3nc(-c4cc([3H])c(N5CC[C@@H](F)C5)nc4F)sc3C2=O)c1 [[^3H]-Compound 1, tritiated 2-[2-fluoro-6-[(3R)-3-fluoropyrrolidin-1-yl]-3-pyridyl]-5-(3-pyridyl)-6,7-dihydrothiazolo[5,4-c]pyridin-4-one] | – | – | – | – |
| – | O=C1c2sc(-c3ccc(N4CC[C@@H](F)C4)nc3F)nc2CCN1c1cccnc1 [Compound 1, 2-[2-fluoro-6-[(3R)-3-fluoropyrrolidin-1-yl]-3-pyridyl]-5-(3-pyridyl)-6,7-dihydrothiazolo[5,4-c]pyridin-4-one] | 22 | 65 | 78 | no signal on the tissue |
| – | O=C1c2sc(-c3ccc(N4CCC(CO)CC4)nc3F)nc2CCN1c1cccnc1 [Compound 17, 2-(2-fluoro-6-(4-(hydroxymethyl)piperidin-1-yl)pyridin-3-yl)-5-(pyridin-3-yl)-6,7-dihydrothiazolo[5,4-c]pyridin-4(5H)-one] | 41 | 73 | 85 | no signal on the tissue |
